The nature of this data set: Storage Safety Test: impurity generation on storage at 25° C., HPLC.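 Also: HPLC peak area percentages of three decomposition products, each sample run alongside a methanol-only blank.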 The note with it: HPLC percentage of area. It is filed as physicochemical.
[1] abbreviates: 0 days, stored in glass bottles at 25° C.
Setting [2] is: 1.0 days, stored at 25° C., listed as 3.67 Na salt.
The mark [3] stands for this setting: 1.9 days, stored at 25° C., listed as 3.67 Na salt.
The mark [4] stands for this setting: 4.5 days, stored at 25° C., listed as 3.67 Na salt.
The mark [5] stands for this setting: 1.0 days, stored at 25° C., listed as 3.93 Na salt.
Setting [6] is: 1.9 days, stored at 25° C., listed as 3.93 Na salt.
The mark [7] stands for this setting: 4.5 days, stored at 25° C., listed as 3.93 Na salt.

Consider four compounds from patent US20100152429A1, “SODIUM SALT OF DISACCHARIDE COMPOUND, METHOD FOR PRODUCING THE SAME, AND USE OF THE SAME” (Eisai R&D Management Co., Ltd., priority 2006, published 2010).

Protocol: When HPLC analysis was performed under the conditions shown in Table 1 for each solution and blank solution (methanol only), three types of decomposition product were identified, and the generation ratio (converted to a monthly basis) was calculated for each of the three decomposition products (impurities A, B and C) as a percentage of area.

Regarding `CCCCCCC=CCCCCCCCCCC(=O)NC1C(OCC2OC(OP(=O)([O-])[O-])C(NC(=O)CC(=O)CCCCCCCCCCC)C(OCCCCCCCCCC)C2O)OC(COC)C(OP(=O)([O-])[O-])C1OCCC(CCCCCCC)OC.[Na+].[Na+].[Na+].[Na+]` (stereo not drawn) [Comparative Example 1, reference compound], the “Impurity A” value was determined as 0.00 under setting [1]; 0.06 (1.0 days, stored at 25° C.); 0.08 (1.9 days, stored at 25° C.); 0.12 (4.5 days, stored at 25° C.). Besides, the “Impurity B” value under setting [1] amounted to 0.18; the “Impurity B” value (1.0 days, stored at 25° C.) is 0.36; the “Impurity B” value (1.9 days, stored at 25° C.) turned out to be 0.48; the “Impurity B” value (4.5 days, stored at 25° C.) is on record as 0.67. Moreover, the “Impurity C” value is, setting by setting: under setting [1], 0.00; (1.0 days, stored at 25° C.) 0.00; (1.9 days, stored at 25° C.) 0.00; (4.5 days, stored at 25° C.) 0.00; (8.8 days, stored at 25° C.) 0.00; (29.5 days, stored at 25° C.) 0.03.
Consider `CCCCCC/C=C\CCCCCCCCCC(=O)N[C@H]1[C@H](OC[C@H]2O[C@H](OP(=O)(O)O)[C@H](NC(=O)CC(=O)CCCCCCCCCCC)[C@@H](OCCCCCCCCCC)[C@@H]2O)O[C@H](COC)[C@@H](OP(=O)(O)O)[C@@H]1OCC[C@@H](CCCCCCC)OC` [Example 2], for which, under setting [1], the “Impurity A” value was 0.00, the “Impurity B” value turned out to be 0.00 and the “Impurity C” value was found to be 0.00. Moreover, where the note is “18 days, stored at 25° C.”, the “Impurity A” value came out at 0.00, the “Impurity B” value came to 0.00 and the “Impurity C” value is 0.17.
As for `CCCCCC/C=C\CCCCCCCCCC(=O)N[C@H]1[C@H](OC[C@H]2O[C@H](OP(=O)([O-])[O-])[C@H](NC(=O)CC(=O)CCCCCCCCCCC)[C@@H](OCCCCCCCCCC)[C@@H]2O)O[C@H](COC)[C@@H](OP(=O)([O-])[O-])[C@@H]1OCC[C@@H](CCCCCCC)OC.[Na+].[Na+].[Na+].[Na+]` [Example 3], the “Impurity A” value was 0.00 under setting [1], 0.00 under setting [2], 0.01 under setting [3] and 0.01 under setting [4]. The “Impurity C” value under setting [1] is listed as 0.00; the “Impurity C” value (1.0 days, stored at 25° C.) is on record as 0.00; the “Impurity C” value (1.9 days, stored at 25° C.) is given as 0.00; the “Impurity C” value (4.5 days, stored at 25° C.) is recorded as 0.01; the “Impurity C” value (8.8 days, stored at 25° C.) is 0.01; the “Impurity C” value (29.5 days, stored at 25° C., listed as 3.67 Na salt) was found to be 0.07. Moreover, the “Impurity B” value by setting is: (0 days, stored in glass bottles at 25° C., listed as 3.67 Na salt) 0.08; under setting [2], 0.12; under setting [3], 0.09; under setting [4], 0.13.
Consider `CCCCCC/C=C\CCCCCCCCCC(=O)N[C@H]1[C@H](OC[C@H]2O[C@H](OP(=O)([O-])[O-])[C@H](NC(=O)CC(=O)CCCCCCCCCCC)[C@@H](OCCCCCCCCCC)[C@@H]2O)O[C@H](COC)[C@@H](OP(=O)([O-])[O-])[C@@H]1OCC[C@@H](CCCCCCC)OC.[Na+].[Na+].[Na+].[Na+]` [Example 4], for which the “Impurity B” value (0 days, stored in glass bottles at 25° C., listed as 3.93 Na salt) worked out at 0.14; the “Impurity B” value under setting [5] stood at 0.26; the “Impurity B” value under setting [6] is reported as 0.29; the “Impurity B” value under setting [7] was determined as 0.38. The “Impurity A” value reads like this: under setting [5], 0.03; under setting [6], 0.04; under setting [7], 0.06. In addition, the “Impurity C” value (29.5 days, stored at 25° C., listed as 3.93 Na salt) was determined as 0.06.
